Assay results published in patent US7396682B2, “Method for cell adhesion and wound healing” (Regen Biotech, Inc., priority 2000, dated 2008).
“Also recorded” adds a separate entry of the source.

B1: βig-h3 D-II: recombinant polypeptide, 2nd fas-1 domain of βig-h3, amino acids 237-377 (SEQ ID NO:24) (protein)
chain: STITNNIQQIIEIEDTFETLRAAVAASGLNTMLEGNGQYTLLAPTNEAFEKIPSETLNRILGDPEALRDLLNNHILKSAMCAEAIVAGLSVETLEGTTLEVGCSGDMLTINGKAIISNKDILATNGVIHYIDELLIPDSAK
modifications: left off: small tags and cut ends
B2: vitronectin: human plasma vitronectin (Promega), coated extracellular matrix protein (protein)
chain: DQESCKGRCTEGFNVDKKCQCDELCSYYQSCCTDYTAECKPQVTRGDVFTMPEDEYTVYDDGEEKNNATVHEQVGGPSLTSDLQAQSKGNPEQTPVLKPEEEAPAPEVGASKPEGIDSRPETLHPGRPQPPAEEELCSGKPFDAFTDLKNGSLFAFRGQYCYELDEKAVRPGYPKLIRDVWGIEGPIDAAFTRINCQGKTYLFKGSQYWRFEDGVLDPDYPRNISDGFDGIPDNVDAALALPAHSYSGRERVYFFKGKQYWEYQFQHQPSQEECEGSSLSAVFEHFAMMQRDSWEDIFELLFWGRTSAGTRQPQFISRDWHGVPGQVDAAMAGRIYISGMAPRPSLAKKQRFRHRNRKGYRSQRGHSRGRNQNSRRPSRATWLSLFSSEESNLGANNYDDYRMDWLVPATCEPIQSVFFFSGDKYYRVNLRTRRVDTVDPPYPRSIAQYWLGCPAPGHL

Key:
[1] = tested on: HCE cells; test: Inhibition assay of HCE cell adhesion using matrix peptides and reagents; type: cell-based, human; settings: HCE cells preincubated 30 min with reagent; for inhibition of cell adhesion to fibronectin: dishes coated with 10 μg/ml fibronectin; for inhibition of cell adhesion to βig-h3: dishes coated with 10 μg/ml βig-h3
Method: In order to identify cell surface receptors involved in the cell adhesion activity of βig-h3 protein, an inhibition assay was performed using various reagents.
Initially, plastic culture dishes were coated with 10 μg/ml fibronectin, βigh3-WT or βigh3-ΔRGD. HCE cells were preincubated for 30 min in media containing 5 mM EDTA, 100 μg/ml βigh3-WT, 100 μg/ml βigh3-ΔRGD, 1 mM RGD, 1 mM RGE or 100 μg/ml fibronectin, or none of them, and then assayed for cell adhesion as in Example 1.

[2] = tested on: Human corneal epithelial (HCE) cells; test: HCE cell adhesion and spreading assay on protein-coated plates; type: cell-based; settings: HCE cells on coated recombinant protein
Method: Human corneal epithelial (HCE) cells used in this assay were cultured in DMEM ([…], Gibco BRL) supplemented with 15% fetal bovine serum, Gentamicin (40 μg/ml), insulin (5 μg/ml), cholera toxin (0.1 μg/ml) and human epidermal growth factor (hEGF) at 37° C. in 5% CO2.
The cell adhesion assay was performed as follows. First, the recombinant βig-h3 proteins or other extracellular matrix proteins were let to adhere to the bottoms of 96-well microculture plates (Falcon) by incubation at 37° C. for 1 hour and blocked with PBS containing 0.2% BSA. The coated extracellular matrix proteins were human plasma vitronectin (Promega), purified human plasma fibronectin (pFN), chicken collagen types I and II (Chemicon International Inc.), bovine collagen types IV and VI (Chemicon), mouse laminin (Chemicon), and bovine serum albumin (BSA) (Sigma). Cells were trypsinized and suspended in the culture media at a density of 2×10^5 cells/ml. 0.1 ml of the cell suspension was added to each well of the plates coated with the recombinant proteins.
Following incubation at 37° C. for 1 hour, unattached cells were removed by rinsing with PBS. Attached cells were incubated for 1 hour at 37° C. in 50 mM citrate buffer, pH 5.0, containing 3.75 mM p-nitrophenol-N-acetyl 1-β-D-glycosaminide as a hexosaminidase substrate and 0.25% Triton X-100, followed by the addition of 50 mM glycine buffer, pH 10.4, containing 5 mM EDTA to block the enzyme activity. A measurement was made of absorbance at 405 nm in a Multiskan MCC/340 microplate reader.
To determine cell area as an index for cell adhesion activity, 4×10^4 cells were applied to substrates in 48-well culture plates. The attached cells were fixed weith 8% glutaraldehyde (Sigma) and then stained with 0.25% Crystal Violet (Sigma) in 20% methanol. Measurement of cell areas was performed by Image-Pro plus software (Media Cybernetics). Experiments were repeated in triplicate with 200 or 300 measurements per site for each experiment. Data is reported as the mean area at specific time points±standard error of mean.

[3] = tested on: K562 cells; test: K562 cell adhesion to coated proteins (hexosaminidase analysis); type: cell-based; settings: 1 hour
Method: For another control experiment, K562 cells, known to express α5, but not α3 integrin, were used. K562 cells were inoculated onto plates coated with βigh3-WT, fibronectin, laminin, or type I collagen and incubated for 1 hour, followed by the hexosaminidase analysis.

Molecule | inhibition of cell adhesion to fibronectin [1] | inhibition of cell adhesion to βig-h3 [1] | HCE cell adhesion activity [2] | adhesion of K562 cells to coated protein [3]
O=C(O)CN(CCN(CC(=O)O)CC(=O)O)CC(=O)O [EDTA] | significantly inhibited | significantly inhibited |  | 
RGE peptide: RGE peptide used at 1 mM in inhibition assay |  | not inhibited |  | 
O=C(O)CN(CCOCCOCCN(CC(=O)O)CC(=O)O)CC(=O)O [EGTA] | partially inhibited | partially inhibited |  | 
RGD peptide: Arg-Gly-Asp peptide used at 1 mM in inhibition assay | significantly inhibited | significantly inhibited |  | 
B1 |  |  | equally active compared to the wild type βig-h3; also recorded: high cell attachment activity | 
B2 |  |  |  | adhered
